Measurements as given in PubChem BioAssay (NCI).
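Tested at 5 concentrations; 48 h exposure; 96-well plates; endpoints linearly interpolated, else capped at highest concentration. Definition used: TGI = concentration required for complete inhibition of growth.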

Experiments:
Assay in all cases: NCI anticancer screen, dose series, 48 h
SK-MEL-28 melanoma = system: SK-MEL-28 melanoma
A498 renal = system: A498 renal
SW-620 colon = system: SW-620 colon
TK-10 renal = system: TK-10 renal
SNB-19 CNS = system: SNB-19 CNS
SF-539 CNS = system: SF-539 CNS
HOP-92 NSCLC = system: HOP-92 NSCLC
T-47D breast = system: T-47D breast
MDA-N = system: MDA-N
U251 CNS = system: U251 CNS
UACC-257 melanoma = system: UACC-257 melanoma
KM12 colon = system: KM12 colon
LOX IMVI melanoma = system: LOX IMVI melanoma
HS 578T breast = system: HS 578T breast
SK-OV-3 ovarian = system: SK-OV-3 ovarian
K-562 leukemia = system: K-562 leukemia

Row | Compound | TGI (SK-MEL-28 melanoma) | TGI (A498 renal) | TGI (SW-620 colon) | TGI (TK-10 renal) | TGI (SNB-19 CNS) | TGI (SF-539 CNS) | TGI (HOP-92 NSCLC) | TGI (T-47D breast) | TGI (MDA-N) | TGI (U251 CNS) | TGI (UACC-257 melanoma) | TGI (KM12 colon) | TGI (LOX IMVI melanoma) | TGI (HS 578T breast) | TGI (SK-OV-3 ovarian) | TGI (K-562 leukemia)
1 | COC(=O)C1(C(=O)OC)CC2=C(S(=O)(=O)c3ccccc3)C[C@H](C#N)[C@H]2C1 | > 100 µM | > 100 µM | > 100 µM | > 100 µM | > 100 µM | > 100 µM | > 100 µM | > 100 µM | > 100 µM | > 100 µM | > 100 µM | > 100 µM | > 100 µM | > 100 µM | > 100 µM | 
2 | CCO/C=C(\C(=O)OC)S(=O)(=O)c1ccc(C)cc1 | > 100 µM |  | > 100 µM | > 100 µM | > 100 µM | > 100 µM | > 100 µM | > 100 µM | > 100 µM | > 100 µM | > 100 µM | > 100 µM | > 100 µM | > 100 µM | > 100 µM | > 100 µM
3 | COC(=O)[C@H](COC(=O)/C=C/c1ccc(OC(C)=O)c(OC(C)=O)c1)NC(=O)/C=C/c1ccc(OC(C)=O)c(OC(C)=O)c1 | 94 µM | > 100 µM | > 100 µM |  | 35.8 µM | > 100 µM | 49.3 µM | 14.4 µM | 38.8 µM | > 100 µM | 42.1 µM | 36.6 µM | 95.6 µM | 49.7 µM | 54.3 µM | > 100 µM
4 | CCN(CC)C(=S)SS(=O)(=O)c1ccc(NC(C)=O)cc1 | 39.2 µM | > 89.5 µM | 32 µM | > 76 µM | > 100 µM |  | 51.3 µM | > 100 µM | > 78.8 µM | 44.6 µM | 58.7 µM | > 100 µM | 31.8 µM | > 100 µM | > 100 µM | > 100 µM
5 | c1cc(NC2=NCCO2)c2c(c1)OCO2 | > 100 µM | > 100 µM | > 100 µM |  | > 100 µM | > 100 µM | > 100 µM | > 100 µM | > 100 µM | > 100 µM | > 100 µM | > 100 µM | > 100 µM | > 100 µM | > 100 µM | > 100 µM
6 | COc1ccc(C)cc1Nc1nnc(-c2ccc(N)cc2)s1 | > 100 µM | > 100 µM | > 100 µM |  | > 100 µM | > 100 µM | > 100 µM | > 100 µM | > 100 µM |  | > 100 µM | > 100 µM | > 100 µM | > 100 µM | > 100 µM | > 100 µM
7 | Cc1ccc(/C=N/NS(=O)(=O)c2ccc(/C=C3\NC(=O)NC3=O)cc2)cc1 | > 100 µM | > 100 µM | > 100 µM | > 100 µM | > 100 µM |  | > 100 µM | > 100 µM | > 100 µM | > 100 µM | > 100 µM | > 100 µM | > 100 µM | 81.6 µM | > 100 µM | > 100 µM
8 | CCOP(=O)(OCC)C(F)(F)Cc1cnc(C)c2c1COC(C)(C)O2 | > 10 µM | > 10 µM | > 10 µM | > 10 µM | > 10 µM | > 10 µM | > 10 µM | > 10 µM | > 10 µM | > 10 µM | > 10 µM | > 10 µM |  | > 10 µM | > 10 µM | > 10 µM
9 | O=C(O)c1ccc(NNC(=O)c2cccc3c(=O)c4ccccc4[nH]c23)cc1 | > 100 µM |  | > 100 µM | > 100 µM | > 100 µM | > 100 µM | > 100 µM | > 100 µM | > 100 µM | > 100 µM | > 100 µM | > 100 µM | > 100 µM | > 100 µM | > 100 µM | > 100 µM
10 | O=C1COCCN1C(=O)c1ccccc1Cl | > 100 µM | > 100 µM | > 100 µM | > 100 µM | > 100 µM | > 100 µM | > 100 µM | > 100 µM | > 100 µM | > 100 µM | > 100 µM | > 100 µM | > 100 µM | > 100 µM |  | > 100 µM
11 | COc1cc2c(cc1OC)C(=O)/C(=C/c1ccc([N+](=O)[O-])cc1)CC2 | > 10 µM |  | > 10 µM | > 10 µM | > 10 µM | > 10 µM | > 10 µM | > 10 µM | > 10 µM | > 10 µM | > 10 µM | > 10 µM | > 10 µM | > 10 µM | > 10 µM | > 10 µM
12 | c1cc(C[S+]2CCCC2)sc1C[S+]1CCCC1 |  | > 100 µM | > 100 µM | > 100 µM | > 100 µM | > 100 µM | > 100 µM | > 100 µM | > 100 µM | > 100 µM | > 100 µM | > 100 µM | > 100 µM | > 100 µM | > 100 µM | > 100 µM
13 | N#CC(c1ccccc1)N(CCOCCOCCN(C(=O)c1cccc2ccccc12)C(C#N)c1ccccc1)C(=O)c1cccc2ccccc12 (centres undefined) | > 100 µM | > 100 µM | > 100 µM | > 100 µM | > 100 µM | > 100 µM |  | > 100 µM | > 100 µM | > 100 µM | > 100 µM | > 100 µM | > 100 µM | > 100 µM | > 100 µM | > 100 µM
14 | C#CCCOC(=O)c1ccccc1OC(C)=O |  | > 100 µM | > 100 µM | > 100 µM | > 100 µM | > 100 µM | > 100 µM | > 100 µM | > 100 µM | > 100 µM | > 100 µM | > 100 µM | > 100 µM | > 100 µM | > 100 µM | > 100 µM
15 | C=C(CN)CO[Si](C)(C)C(C)(C)C | > 100 µM | > 100 µM | > 100 µM | > 100 µM | > 100 µM | > 100 µM |  | > 100 µM | > 100 µM | > 100 µM | > 100 µM | > 100 µM | > 100 µM | > 100 µM | > 100 µM | > 100 µM
